Our source for the Kd values is PubChem BioAssay AID1549 (Sanford-Burnham Center for Chemical Genomics, 2009).

The source made the active and inactive calls. No rule for the calls is given here.

The target in this test is Influenza A virus M2 proton channel (A/TW/4845/1999 H1N1). Description: M2 proton channel binding, NMR based, influenza A virus H1N1 strain (AID 1549). The note with it: NMR binding screen, M2 protein.
Regarding `CC1(C)Oc2ccc(N)cc2O1`, the Kd is > 4 mM (inactive).
As for `CCN1CCn2c1nc(N1CCOCC1)nc2=O`, the Kd is > 4 mM (inactive).
The same measure for `CC(C)=CCc1c(O)cc2oc(C)cc(=O)c2c1O`: > 4 mM (inactive).
For `Cn1cnc2ccc([N+](=O)[O-])cc2c1=O`, the Kd was > 4 mM (inactive).
`Cc1nn(C)c2sc(CO)cc12`: the Kd is > 4 mM (inactive).
Take `S=C(c1ccc(N2CCOCC2)cc1)N1CCCCC1`: the Kd is > 4 mM (inactive).
The same measure for `COC(=O)c1cc(-c2c[nH]c3ccccc23)n[nH]1`: > 4 mM (inactive).
Consider `Cc1cc(NC(=O)c2cccc(N3C(=O)CCC3=O)c2)no1`, for which the Kd is > 4 mM (inactive).
In the case of `Cc1ccccc1-n1c(-c2ccncc2)n[nH]c1=S`, the Kd was > 4 mM (inactive).
In the case of `Cc1ccc(NC(=O)c2ccccc2)s1`, the Kd is > 4 mM (inactive).
The same measure for `NC1=C(c2ccccc2)C(=O)c2ccccc21`: > 4 mM (inactive); for `c1cncc(C2CCCCN2)c1` (stereo unspecified): > 4 mM (inactive); for `Clc1ncnc2[nH]ncc12`: > 4 mM (inactive).
Take `OCCN1CCN(C(=S)c2ccc(Cl)cc2)CC1`: the Kd was > 4 mM (inactive).
`N#Cc1cnn(-c2ccc(Cl)cc2)c1N`: the Kd was > 4 mM (inactive).
With `O=C(NCc1ccccn1)c1ccc(Cl)cc1Cl` the figure was > 4 mM (inactive); with `CN1CN/C(=N\[N+](=O)[O-])N(c2ccccc2)C1`, > 4 mM (inactive).
In the case of `OCc1cc(-c2cccs2)on1`, the Kd is > 4 mM (inactive).
Turning to `CC1=CC2C(C(C)C)CCC(C)(O)C2CC1` (stereo unspecified), the Kd was > 4 mM (inactive).
With `CN(C)C(=S)Nc1nc2ccccc2s1`, the Kd is > 4 mM (inactive).
With `CC(=O)Nc1ccc2c(C)cc(=O)[nH]c2c1` the figure was > 4 mM (inactive).
Consider `CCc1noc(C)c1C(=O)Nc1ncc(C)s1`, for which the Kd is > 4 mM (inactive).
With `C[C@H](CCC(=O)O)[C@H]1CCC2C3C(CC[C@@]21C)[C@@]1(C)CC[C@@H](O)C[C@H]1C[C@H]3O` (stereo partly specified), the Kd is > 4 mM (inactive).
For `Nc1nc2ncc(CNc3ccc(C(=O)N[C@@H](CCC(=O)O)C(=O)O)cc3)nc2c(=O)[nH]1`, the Kd was > 4 mM (inactive).
As to `COc1ccc(/C=N/n2cn[nH]c2=S)cc1`, the Kd was > 4 mM (inactive).
Consider `COc1ccc2c(C)cc(=O)oc2c1`, for which the Kd is > 4 mM (inactive).
`ON=c1ccc2nc3ccccc3nc2cc1`: the Kd was > 4 mM (inactive).
With `O=S1(=O)CCC(NC(=S)Nc2ccccc2)C1` (stereo unspecified) the figure was > 4 mM (inactive); with `O=C(c1cccnc1Cl)N1CCOCC1`, > 4 mM (inactive); with `O=c1c[n+]([O-])c2ccccc2n1OCc1ccccn1`, > 4 mM (inactive).
The same measure for `Cc1ccc(C)n1NC(=O)c1cccs1`: > 4 mM (inactive).
On to `COc1cc(C(C)=O)cc(OC)c1O`, for which the Kd was > 4 mM (inactive).
The same measure for `CC[C@@]1(O)C[C@H](O[C@H]2C[C@H](N(C)C)[C@H](O)[C@H](C)O2)c2c(cc3c(c2O)C(=O)c2c(O)cccc2C3=O)[C@H]1C(=O)OC`: > 4 mM (inactive); for `COc1cc2c(cc1OC)[C@@H]1C(=O)c3ccc4oc(C(C)C)cc4c3O[C@@H]1CO2`: > 4 mM (inactive); for `O=[N+]([O-])c1ccc2c(c1)N([O-])C1(CCCCC1)[N+]2=O`: > 4 mM (inactive).
The same measure for `Cc1noc(C)c1CSc1nc2ccccc2[nH]1`: > 4 mM (inactive); for `Cc1nc(-c2ccccc2)sc1CO`: > 4 mM (inactive); for `CC(=O)NCc1nc2ccccc2[nH]1`: > 4 mM (inactive).
In the case of `CC12CC[C@H](CC1=O)C2(C)C`, the Kd was > 4 mM (inactive).
In the case of `Nc1oncc1-c1ccccn1`, the Kd is > 4 mM (inactive).
Turning to `CCC(=O)Nc1cc(C(C)C)c(O)cc1C`, the Kd was > 4 mM (inactive).
Take `OCC1CNc2ccccc2O1` (stereo unspecified): the Kd was > 4 mM (inactive).
In the case of `NCC(O)c1ccc(O)cc1` (stereo unspecified), the Kd is > 4 mM (inactive).
In the case of `C[C@H]1[C@H](C)CC[C@]2(CO)CC[C@]3(C)C(=CCC4[C@@]5(C)CC[C@H](O)C(C)(C)C5CC[C@]43C)[C@H]12` (stereo partly specified), the Kd is > 4 mM (inactive).
As to `C=CCNC(=O)c1nn2cccnc2c1Cl`, the Kd is > 4 mM (inactive).
In the case of `Cc1nn2c(-c3ccco3)nnc2c2ccccc12`, the Kd is > 4 mM (inactive).
With `Nc1nc(NCc2ccco2)nn1-c1ccccc1` the figure was > 4 mM (inactive); with `CN(c1ccccc1C(=O)N1CCOCC1)S(C)(=O)=O`, > 4 mM (inactive); with `CCNC(=S)N1CCCC(C(N)=O)C1` (stereo unspecified), > 4 mM (inactive).
For the compound `Cc1ccc(CCC(N)=O)o1`, the Kd is > 4 mM (inactive).
With `CC1CCC2(OC1)OC1CC3C4CCC5C[C@@H](O)CCC5(C)C4=CCC3(C)C1[C@@H]2C` (stereo partly specified) the figure was > 4 mM (inactive); with `NC(=O)c1ccc(NC(=O)c2ccco2)cc1`, > 4 mM (inactive).
Consider `Cc1nccc(-c2cccc(N)c2)n1`, for which the Kd was > 4 mM (inactive).
`OC1CC2CCC1C2` (stereo unspecified): the Kd is > 4 mM (inactive).
The same measure for `O=S(=O)(N1CCOCC1)n1nnc2ccccc21`: > 4 mM (inactive); for `COC(=O)Cc1cccc(OC)c1`: > 4 mM (inactive); for `Nc1c2c3c(sc2nc(=O)n1N)CCCC3`: > 4 mM (inactive).
For `CCSc1nnc(-c2ccccc2N)c(=O)[nH]1`, the Kd was > 4 mM (inactive).
As for `O=C(O)Cn1cc(C(F)(F)F)ccc1=O`, the Kd is > 4 mM (inactive).
In the case of `CC(=O)NC(=S)Nc1cccc(C(=O)O)c1C`, the Kd is > 4 mM (inactive).
With `CC(=O)NCS(=O)(=O)c1ccc(C)cc1` the figure was > 4 mM (inactive); with `Cc1nnc(SCC(N)=O)c2ccccc12`, > 4 mM (inactive); with `Cc1cc(NC(=O)c2cnn3cccnc23)no1`, > 4 mM (inactive).
For the compound `COc1ccc(C2CC(=O)NN2)cc1OC1CCCC1` (stereo unspecified), the Kd was > 4 mM (inactive).
Consider `OCc1ccc2c(c1)OCCCO2`, for which the Kd is > 4 mM (inactive).
For the compound `C#CCCCCCCCCCCCC(=O)CC(O)COC(C)=O` (stereo unspecified), the Kd is > 4 mM (inactive).
Take `CC(=O)OC[C@@]1(O)C[C@@]23CCC4c5ccoc5CC[C@]4(C)C2CC[C@@H]1C3` (stereo partly specified): the Kd is > 4 mM (inactive).
As to `Cn1c(=O)c2c(ncn2CCN)n(C)c1=O`, the Kd was > 4 mM (inactive).
On to `Cc1nc2ccccc2c(=O)n1CCCn1ccnc1`, for which the Kd was > 4 mM (inactive).
For `CC(CCC(=O)O)[C@H]1CCC2C3CC[C@@H]4C[C@H](O)CC[C@]4(C)C3CC[C@@]21C` (stereo partly specified), the Kd was > 4 mM (inactive).
For the compound `NC(=O)CSc1nnc2ccc3ccccc3n12`, the Kd was > 4 mM (inactive).
For the compound `Cc1nn(-c2ccccc2)nc1CO`, the Kd is > 4 mM (inactive).
For the compound `CCN1C(=O)c2c(C)nc3ccccc3c2C1=O`, the Kd was > 4 mM (inactive).
For `Fc1ccc(CN2CCCNCC2)cc1`, the Kd is > 4 mM (inactive).
With `NC(=O)CC[C@H](N)C(=O)O`, the Kd was > 4 mM (inactive).
Turning to `CN1C(=O)c2ccc(N3CCCC3)cc2C1=O`, the Kd is > 4 mM (inactive).
With `NC(=O)COc1cccc2cccnc12`, the Kd is > 4 mM (inactive).
The same measure for `N/C(=N/S(=O)(=O)c1cccs1)c1ccccc1`: > 4 mM (inactive); for `COc1cccc(NC(=O)c2cnn(C)c2Cl)c1`: > 4 mM (inactive); for `CSc1nnc2ccc(-c3cccnc3)nn12`: > 4 mM (inactive).
Turning to `Cc1occc1C(=O)N1CCN(S(C)(=O)=O)CC1`, the Kd is > 4 mM (inactive).
For `CS(=O)(=O)NC1CCN(Cc2ccccc2)CC1`, the Kd was > 4 mM (inactive).
Take `NCC(N)C(=O)c1ccccc1` (stereo unspecified): the Kd is > 4 mM (inactive).
With `CSc1ccccc1NC(=O)c1c(C)noc1C` the figure was > 4 mM (inactive); with `OC1CSc2ncnn2C1` (stereo unspecified), > 4 mM (inactive).
On to `O=C(O)C1CSC(c2cc3ccccc3nc2Cl)N1` (stereo unspecified), for which the Kd was > 4 mM (inactive).
With `COc1ccc(S(=O)(=O)Nc2ccccn2)c(C)c1C`, the Kd is > 4 mM (inactive).
Take `C=CCNC(=O)c1ccc(Cl)cc1Cl`: the Kd was > 4 mM (inactive).
Take `CCOC(=O)Nc1ccc2c(C)cc(=O)oc2c1`: the Kd was > 4 mM (inactive).
In the case of `CC(=O)Nc1ccc2c(c1)CCCC2=O`, the Kd was > 4 mM (inactive).
As for `Cc1nn(C)c(Cl)c1S(=O)(=O)N1CCOCC1`, the Kd is > 4 mM (inactive).
Regarding `Cc1c(C(=O)Nn2cnnc2)oc2ccccc12`, the Kd is > 4 mM (inactive).
Turning to `O=C(Nc1cnccn1)c1ccncc1`, the Kd is > 4 mM (inactive).
The same measure for `Oc1ccccc1N1CCCC1`: > 4 mM (inactive).
Take `COc1ccc2c(c1)[nH]c1c(C)nccc12`: the Kd was > 4 mM (inactive).
The same measure for `NC(=O)C1CCN(S(=O)(=O)c2ccccc2)CC1`: > 4 mM (inactive).
With `O=C(Nc1ccccc1)c1cnc2n(c1=O)CCS2` the figure was > 4 mM (inactive).
Turning to `Nc1n[nH]c(=S)n1-c1ccccc1`, the Kd is > 4 mM (inactive).
Consider `O=c1[nH]cc(CN2CCOCC2)c(=O)[nH]1`, for which the Kd was > 4 mM (inactive).
The same measure for `NC1CN2CCC1CC2` (stereo unspecified): > 4 mM (inactive).
As for `Cc1cc(N)n(C2CCOC(C)(C)C2)n1` (stereo unspecified), the Kd is > 4 mM (inactive).
Consider `CN=C1SC(CC(=O)Nc2ccc(O)cc2)C(=O)N1C` (stereo unspecified), for which the Kd is > 4 mM (inactive).
Regarding `O=C1NC(=S)NC(=O)C1=Cc1ccncc1`, the Kd was > 4 mM (inactive).
Turning to `CCOc1ccc2ccccc2c1C(=O)N1CCOCC1`, the Kd is > 4 mM (inactive).
With `CC(C)=CCC[C@](C)(O)C1CC=C(C)CC1` (stereo partly specified), the Kd is > 4 mM (inactive).
Regarding `O=C(COc1ccccc1Cl)N1CCCC1`, the Kd is > 4 mM (inactive).

In general, Kd refers to a measure of binding affinity in units of concentration.
